From PubChem BioAssay (NCI)
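Assay format: 96-well plates, 48-hour exposure. GI50 is the concentration that inhibits growth by half. At the TGI there is no net growth.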

Legend:
Test in all cases: inhibition of tumour cell growth, NCI panel, 48 h
HL-60(TB) leukemia = system: HL-60(TB) leukemia
HOP-62 NSCLC = system: HOP-62 NSCLC
LOX IMVI melanoma = system: LOX IMVI melanoma
NCI-H226 lung = system: NCI-H226 lung
RXF 393 renal = system: RXF 393 renal
SK-MEL-5 melanoma = system: SK-MEL-5 melanoma
TK-10 renal = system: TK-10 renal
UACC-257 melanoma = system: UACC-257 melanoma
HS 578T breast = system: HS 578T breast
MDA-MB-231 breast = system: MDA-MB-231 breast

Structure (SMILES) | TGI (HL-60(TB) leukemia) | TGI (HOP-62 NSCLC) | TGI (LOX IMVI melanoma) | TGI (NCI-H226 lung) | TGI (RXF 393 renal) | TGI (SK-MEL-5 melanoma) | TGI (TK-10 renal) | TGI (UACC-257 melanoma) | GI50 (HS 578T breast) | TGI (HS 578T breast) | GI50 (MDA-MB-231 breast) | TGI (MDA-MB-231 breast) | GI50 (SK-MEL-5 melanoma) | GI50 (TK-10 renal) | GI50 (UACC-257 melanoma) | GI50 (HL-60(TB) leukemia) | GI50 (HOP-62 NSCLC) | GI50 (LOX IMVI melanoma) | GI50 (NCI-H226 lung) | GI50 (RXF 393 renal)
CC1(c2cccc3ccccc23)OC(=O)c2ccccc21 (stereo unspecified) | 43.4 µM | 41.6 µM | 42.8 µM | 48.3 µM | 46.1 µM | 26.2 µM | > 100 µM | 54.5 µM |  |  |  |  |  |  |  |  |  |  |  | 
O=C(CO)CC(=O)C(=O)Nc1ccccc1 | > 100 µM | > 100 µM | > 100 µM | > 100 µM | > 100 µM | > 100 µM | > 100 µM | > 100 µM |  |  |  |  |  |  |  |  |  |  |  | 
Fc1ccc2c(c1)c(-c1nc(-c3c[nH]c4ncccc34)cs1)cn2CCCN1CCCCC1 |  |  |  |  |  | 3.17 µM | 3.42 µM | 3.7 µM | 2.59 µM | 7.69 µM | 1.69 µM | 3.18 µM | 1.76 µM | 1.85 µM | 1.92 µM |  |  |  |  | 
N#C/C(=C/c1ccc[nH]1)P(=O)(O)O | > 100 µM | > 100 µM | > 100 µM | > 100 µM | > 100 µM | > 100 µM | > 100 µM | > 100 µM |  |  |  |  |  |  |  |  |  |  |  | 
C=C1C(=O)O[C@H]2[C@H]1CC/C(Cn1cc(-c3cc(C(F)(F)F)cc(C(F)(F)F)c3)nn1)=C\CC[C@@]1(C)O[C@@H]21 | 0.484 µM | 3.31 µM | 0.298 µM | 3.56 µM | 0.102 µM | 2.78 µM |  | 2.91 µM | 1.03 µM | 4.23 µM | 0.333 µM | 1.06 µM | 1.47 µM |  | 1.46 µM | 0.19 µM | 1.56 µM | 0.156 µM | 1.65 µM | 0.0274 µM
Clc1cc(Cc2cc(Cl)c(Cl)c3c2OCOC3)c2c(c1Cl)COCO2 | > 100 µM | 63 µM | > 100 µM | 72.9 µM | 70.3 µM | > 100 µM | > 100 µM | > 100 µM |  |  |  |  |  |  |  |  |  |  |  | 
O=C1C(=O)c2ccccc2C(O)=C1CC=C(Br)Br | 30.4 µM | > 100 µM | 27.6 µM | 53.2 µM | 80.7 µM | 16.6 µM |  | 38.4 µM | 10.6 µM | 56 µM | 8.98 µM | 27 µM | 1.28 µM |  | 11 µM | 5.37 µM | 9.01 µM | 1.34 µM | 11.6 µM | 14.3 µM
N#CC(C(=O)CCC(=O)C(C#N)c1ccccc1)c1ccccc1 (stereo unspecified) | > 100 µM | > 100 µM | > 100 µM | > 100 µM | > 100 µM | > 100 µM | > 100 µM | > 100 µM |  |  |  |  |  |  |  |  |  |  |  | 
Cc1ccccc1N=Nc1ccc(NC(=O)c2ccnn2C)c(C)c1 |  | > 100 µM | > 100 µM | 89.6 µM | 47.2 µM | 72.2 µM | > 100 µM | > 100 µM | 22.1 µM | > 100 µM | 20.2 µM | 78.2 µM | 4.99 µM | 20.5 µM | 49 µM |  | 29.4 µM | 72.2 µM | 15 µM | 18.5 µM
CCOc1ccccc1NC(=O)CC1SC(=Nc2ccc([N+](=O)[O-])cc2)NC1=O (stereo unspecified) | > 100 µM | 34.3 µM | 47.1 µM | 41.8 µM | 39.7 µM | 30 µM | 70.2 µM | 46.1 µM |  |  |  |  |  |  |  |  |  |  |  | 
COC(=O)/C([Se]c1c(C)cc(C)cc1C)=C(\[Se]c1c(C)cc(C)cc1C)C(=O)OC | > 100 µM | > 100 µM | > 100 µM | > 100 µM | > 100 µM | > 100 µM | > 100 µM | > 100 µM |  |  |  |  |  |  |  |  |  |  |  | 
CCn1c(CN2CCN(Cc3ccccc3)CC2)nc2cc(NC(=O)c3cccs3)ccc21 | 60.9 µM | 38 µM | 41.7 µM | 41.5 µM | 33.1 µM | 24.1 µM | 70.4 µM |  | 16.9 µM | 48.8 µM | 16.9 µM | > 100 µM | 11.5 µM | 24 µM |  | 20.5 µM | 17.7 µM | 19.4 µM | 15.2 µM | 12.5 µM
O=C1NC(=O)C2C(=O)NC(=O)C1C2(c1ccccc1)c1cc[nH]c1 (stereo unspecified) | > 100 µM | > 100 µM | > 100 µM | > 100 µM | > 100 µM | > 100 µM | > 100 µM | > 100 µM |  |  |  |  |  |  |  |  |  |  |  | 
N#CC(C(=O)/C(=N/N)C(C#N)c1ccccc1)c1ccccc1 (stereo unspecified) | > 100 µM | > 100 µM | > 100 µM | > 100 µM | > 100 µM | > 100 µM | > 100 µM | > 100 µM |  |  |  |  |  |  |  |  |  |  |  | 
O=NNc1ccc(S(=O)(=O)c2ccccc2)cn1 |  | > 100 µM |  | > 100 µM |  |  | > 100 µM | > 100 µM |  | > 100 µM |  | > 100 µM |  |  |  |  |  |  |  | 
N/C(=C\c1ccc(OCc2ccccc2)c(OCc2ccccc2)c1[N+](=O)[O-])C(=O)O | > 100 µM | > 100 µM | > 100 µM | > 100 µM | > 100 µM | > 100 µM | > 100 µM | > 100 µM |  |  |  |  |  |  |  |  |  |  |  | 
Oc1cc(O)c2c(-c3c(O)c(-c4ccc(O)c(O)c4)[o+]c4cc(O)cc(O)c34)c(O)c(-c3ccc(O)c(O)c3)[o+]c2c1 |  | 97.8 µM | > 100 µM | 64 µM | 81.1 µM | > 100 µM | > 100 µM | > 100 µM |  |  |  |  |  |  |  |  |  |  |  | 
Cc1cc2nc(CCC(=O)O)c(=O)[nH]c2cc1C | > 100 µM | > 100 µM | > 100 µM | > 100 µM | > 100 µM | > 100 µM | > 100 µM | > 100 µM |  |  |  |  |  |  |  |  |  |  |  | 
O=c1nc2n(-c3ccc(Cl)cc3)c3ccc([N+](=O)[O-])cc3cc-2c(=O)[nH]1 | > 100 µM | 22.8 µM | 21.7 µM | 60.5 µM | > 100 µM | 41.6 µM | 62.7 µM | 62.5 µM |  |  | 17.3 µM | 44.5 µM | 18.6 µM | 25.7 µM | 23.4 µM | 9.55 µM | 6.01 µM | 4.87 µM | 21.1 µM | 18.8 µM
